According to patent publication US9884851B2, “Heterocycle-bisamide inhibitors of scavenger receptor BI” (THE BROAD INSTITUTE, INC., priority 2012, dated 2018):
Entries after “also recorded” stand apart in the source; their conditions may differ.

Assays:
SR-BI [1] = biological target: T1, SR-BI (Mus musculus, UniProt Q61009); assay: HDL binding assay (Alexa 488 HDL); format: cell-based, murine; parameters: expressed in transfected cells; host or cells: ldlA[mSR-BI], Chinese hamster ovary (CHO) cells lacking LDL receptor (Krieger Laboratory)
T1 sequence (Q61009 1-509): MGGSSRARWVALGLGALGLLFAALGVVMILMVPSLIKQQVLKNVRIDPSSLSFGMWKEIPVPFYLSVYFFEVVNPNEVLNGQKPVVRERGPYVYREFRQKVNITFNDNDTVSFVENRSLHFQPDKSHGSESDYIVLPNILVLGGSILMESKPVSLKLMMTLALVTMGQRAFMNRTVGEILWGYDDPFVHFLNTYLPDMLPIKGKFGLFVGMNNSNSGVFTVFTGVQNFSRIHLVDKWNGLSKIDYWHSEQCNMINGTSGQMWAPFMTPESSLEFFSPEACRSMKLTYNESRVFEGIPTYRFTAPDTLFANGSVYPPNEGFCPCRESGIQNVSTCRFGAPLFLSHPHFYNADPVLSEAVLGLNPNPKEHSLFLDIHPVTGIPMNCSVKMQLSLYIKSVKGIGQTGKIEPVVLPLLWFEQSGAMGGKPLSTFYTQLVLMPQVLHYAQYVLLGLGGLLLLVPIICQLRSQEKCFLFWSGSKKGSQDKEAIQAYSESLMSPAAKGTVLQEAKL
Experimental: HDL binding was assessed using Alexa Fluor 488-labeled HDL particles. For this assay, the Alexa 488 dye was directly covalently bound to apolipoprotein components of the HDL particle via primary amines; thus, no transfer of the fluorophore to cell membranes occurs. Instead, direct binding of the HDL particles to SR-BI can be measured. As a positive control, BLT-1, which is known to increase binding, was used at 1 μM. It is possible that a compound can reduce binding of HDL to the receptor, and this would lead to a decrease in signal. This assay is used to characterize the mechanism of action of a particular compound; therefore, any outcome in the assay is acceptable. Data were normalized against DMSO and the positive control (1 μM BLT-1) in Genedata Assay Analyzer.

Plasma protein binding = format: in vitro ADME; conditions: human plasma; read-out: plasma protein binding (PPB), bound (converted)
[2] = system: endocytosis of transferrin; assay: Transferrin endocytosis assay; format: cell-based, Chinese hamster; conditions: concentrations up to 35 μM
From the text: Transferrin Endocytosis Assay (SA 3: AID No. 602134)
This assay measures the endocytosis of an independent ligand, transferrin, which is not taken up via SR-BI but by clathrin-mediated endocytosis; thus providing a measure of the selectivity of the inhibitors. Alexa-594-labeled transferrin is taken into the cell via endocytosis and localization of labeled transferrin can be quantitated in the various intracellular compartments. […] Inhibitors of interest should act selectively at SR-BI and should have no activity in this assay.
Cells were pre-treated with compound for 3 hours and then treated with the Alexa-594 transferrin reagent for 30 minutes (Catalog No. T-13343; Invitrogen) in serum-free media. Plates of cells were then placed onto ice, washed with ice cold PBS, and then fixed with 4% paraformaldehyde. In addition, the nuclei were stained with 300 nM 4′,6-diamidino-2-phenylindole (DAPI) (Catalog No. 21490; Invitrogen). The cells were imaged with the Molecular Devices IXM microscope. Translocation measurements were performed using MetaExpress software and normalized for cell number.

Stability in PBS = format: physicochemical; conditions: 1% DMSO, over 48 hours
Experimental: We noticed that the concentration of the probe fluctuated through the course of the assay (data not shown). We believe that this fluctuation is due to the low kinetic solubility of the probe. Thus, we decided to determine the amount of undissolved probe present in the well after it was treated with PBS for a given length of time, relative to the amount of undissolved probe at the start of the assay. The wells were centrifuged and the supernatant was removed after various time points, then acetonitrile was added to dissolve the remaining solid in the wells, and the amount of probe was quantified. […] The stability of the probe was confirmed by measuring stability in human plasma, with >99% remaining after a 5-hour incubation period. […] FIG. 5 summarizes known properties of the probe.

SR-BI [3] = biological target: T1, SR-BI; assay: Cholesterol efflux assay; format: cell-based, murine; parameters: expressed in transfected cells; host or cells: ldlA[mSR-BI], Chinese hamster ovary (CHO) cells lacking LDL receptor (Krieger Laboratory); conditions: for inhibition of efflux of free cholesterol (in words): efflux to HDL
Experimental: SR-BI also mediates bidirectional flux (e.g. efflux) of unesterified or ‘free’ cholesterol (FC) between cells and HDL or other acceptors. This assay is used to determine if the compounds alter the efflux of free cholesterol to HDL.
On Day 0, 50,000 cells per well were plated in 24-well plates. On the following day, the media was removed and [^3H]cholesterol in lipoprotein-deficient media was added. On Day 1, the medium was replaced with Ham's F12 medium supplemented with 10% bovine lipoprotein deficient serum with 1 μCi/ml [1,2-^3H]cholesterol (40-60 Ci/mmol). On Day 3, the cells were washed to remove serum and incubated in Ham's F12 plus 1% fatty acid-free BSA. On Day 4, the cells were washed and pretreated with compounds for 1 hour. Subsequently, the cells were incubated for an additional 2 hours with the same concentrations of small molecules and with unlabeled HDL (final HDL concentration of 100 μg protein/ml). The medium was collected to determine released cholesterol, and the cells were lysed. The amount of [^3H]cholesterol in the medium and cells was determined using liquid scintillation counting. Total cellular [^3H]cholesterol was calculated as the sum of the radioactivity in the efflux medium plus the radioactivity in the cells and was used to calculate the [^3H]cholesterol efflux (percent of total [^3H]cholesterol released into the medium).

ldlA7 cells = assay: DiI-HDL uptake assay in the absence of SR-BI (ldlA7 counterscreen); format: cell-based, Chinese hamster; conditions: Cricetulus griseus; parental cells not overexpressing SR-BI
Experimental: DiI-HDL Uptake Assay in the Absence of SR-BI (SA 7: AID No. 588825)
In the primary assay, the cell line used to measure DiI-HDL uptake lacks the LDL receptor and overexpresses SR-BI. […] As in the primary assay, 10 μg protein/ml of DiI-HDL was used to measure DiI uptake into the cells after 3 hours of incubation with different concentrations of compound.

[4] = biological target: T2, purified SR-BI (mSR-BI-t1) (Mus musculus, UniProt Q61009); assay: Lipid transport assay in liposomes; format: biochemical, murine; conditions: [3H]CE uptake into SR-BI liposomes
T2 construct: made in house; host or cells: HEK293S GnTI-defective cells, tetracycline-inducible promoter
T2 sequence (Q61009 1-509): T1 sequence (Q61009 1-509)
From the text: This assay provides confirmation of activity via SR-BI by measuring the uptake of [^3H]cholesteryl ester ([^3H]CE) into liposomes loaded with purified SR-BI. For the purification of C-terminally epitope-tagged murine SR-BI (mSR-BI-t1) with uniform, truncated N-linked oligosaccharide chains, we overexpressed mSR-BI-t1 in HEK293S cells. The mSR-BI-t1 was expressed in an N-acetylglucosaminyltransferase I (GnTI)-defective HEK293S derivative, HEK293S GnTI (2), which generates a glycoprotein with uniform, truncated N-linked oligosaccharide chains under the control of a tetracycline-inducible promoter. mSR-BI-t1 was immunoaffinity purified to virtual homogeneity, and the detergent-solubilized receptor was reconstituted into liposomes. Subsequently, the in vitro SR-BI-mediated selective uptake of [^3H]CE from [^3H]CE-HDL in the reconstituted liposomes was measured. […] Briefly, 20 μg of SR-BI (or an equivalent volume of protein-free buffer to generate control liposomes that are devoid of SR-BI) was reconstituted into liposomes by acetone precipitation. […] Incubation was continued for 4 hours at 37° C., and then selective uptake of [^3H]CE into liposomes was determined using the previously described filter binding assays (15). SR-BI-selective uptake values were determined.

[5] = listed as compound of Formula (II)

## C[C@H](C(=O)NC1CCCC1)N(C(=O)Cn1nnc(-c2ccc3c(c2)OCO3)n1)C1CCCCC1 [ML279, (R)-2-(2-(5-(Benzo[d][1,3]dioxol-5-yl)-2H-tetrazol-2-yl)-N-cyclohexylacetamido)-N-cyclopentylpropanamide]
SR-BI [1]; Alexa Fluor 488-labeled HDL
  AC50: 270 nM
SR-BI [1]; Alexa-488 labeled HDL
  effect on binding of HDL to SR-BI (in words): increases binding of HDL to the receptor
Plasma protein binding
  fraction unbound: 0.235
[2]
  endocytosis of transferrin (in words): does not inhibit endocytosis of transferrin; also recorded: not grossly perturbing cellular membrane trafficking pathways; also recorded: no effect on the endocytosis of transferrin
[2]; [5]
  endocytosis of transferrin (in words): does not inhibit endocytosis of transferrin
Stability in PBS
  stability in PBS (in words): stable to PBS
SR-BI [3]
  reduction of efflux of free cholesterol from cells: about 50%
  inhibition of efflux of free cholesterol (in words): inhibiting both SR-BI-mediated uptake of cholesteryl ester from HDL and efflux of free cholesterol to HDL particles; also recorded: inhibits efflux of free cholesterol
SR-BI [3]; [5]
  inhibition of efflux of free cholesterol (in words): inhibit efflux of cholesterol
ldlA7 cells
  IC50: > 35000 nM
[4]
  interaction with SR-BI in purified liposomes (in words): direct interaction between the probe and SR-BI
